Tests used:
[1] = test system: apolipoprotein E (ApoE) knock out mice; test: Antihypertensive effects, systolic blood pressure on high fatty diet; assay type: in vivo; details: for Systolic blood pressures: 3 mg/kg of each agent oral for 24 weeks, measured 21 to 24 hours after administration in the 23rd week, mean±S.E.; for hypotensive effects: 3 mg/kg of each agent, Dunnett's multiple comparison test
Experimental: Male apolipoprotein E (ApoE) knock out mice aged 12 weeks were divided into 4 groups (15 mice per group) as following: control group (0.5% carboxymethylcellulose (CMC) solution administered group), olmesartan medoxomil (3 mg/kg) administered group, azelnidipine (3 mg/kg) administered group, and olmesartan medoxomil (3 mg/kg) plus azelnidipine (3 mg/kg) administered group. Either test substance or vehicle (0.5% CMC solution) was orally administered to animals for 24 successive weeks. A high fatty diet (containing 0.15% cholesterol and 15% unsalted butter) was given to all mice in all groups following the start of test agent administration (12 weeks of age). The systolic blood pressure of all mice was measured by a non-preheating type blood pressure monitor (BP MONITOR FOR RATS & MICE, Model MK-2000, Muromachi Kikai Co., Ltd.) at 21 to 24 hours after drug administration in the 23rd week. The results are shown in Table 3 (values in the table indicate mean±S.E.).

[2] = test system: cultured rat vascular smooth muscle cells; test: DNA synthesis ([3H]thymidine incorporation) following stimulation by angiotensin II; assay type: cell-based; details: for DNA synthesis of cultured rat vascular smooth muscle cells: low doses, alone or co-administered
From the text: (§1) (3) Olmesartan, an AT1 receptor blocker, was intraperitoneally injected into wild-type mice by an osmotic minipump, and the dose-dependency of olmesartan was investigated as described in (2). Oral administration of azelnidipine to the wild-type mice was started after cuff placement, and dose-dependency of azelnidipine was investigated as described in (2). (4) Both olmesartan and azelnidipine were simultaneously administered to wild-type mice, and the effects of co-administration of olmesartan and azelnidipine were compared with those of administration of either olmesartan or azelnidipine alone as described in (2). Effects of olmesartan and azelnidipine were investigated at effective doses of either olmesartan or azelnidipine alone and at insufficient doses to elicit significant effects by either olmesartan or azelnidipine alone, so as to determine synergistic effects of these two agents. (5) By using cultured rat vascular smooth muscle cells, the effects of co-treatment of olmesartan and azelnidipine on facilitation of DNA synthesis following stimulation by angiotensin II (determined by incorporation of [^3H]thymidine) were investigated.

[3] = test system: cuff-induced vascular damage model of wild-type mice (femoral artery); test: Cuff-induced vascular injury model: DNA synthesis (BrdU index) and neointima formation; assay type: in vivo; details: for effects on blood pressure: azelnidipine 0.1 to 1.0 mg/kg/day, olmesartan 0.5 to 3.0 mg/kg/day
Experimental: C57BL/6 mice aged 10 weeks were used. In a part of this study, AT1a receptor gene knock out (AT1aKO) mice were also used. Inflammatory vascular damage was induced in mice by loosely placing a polyethylene tube which was cut longitudinally to open the tube, around the femoral artery of mice. In the damaged artery, the following observations were determined. The usefulness of this model of vascular damage to analyze vascular remodeling has been previously reported (Physiol. Genomics., 2, pp. 13-30, 2000; Circulation, 104, pp. 2716-2721, 2001; Circulation, 106, pp. 847-853, 2002).
A paraffin-embedded section of the damaged artery was prepared 14 days after cuff placement, Elastica van Gieson staining was carried out, and the cross-sectional area of the neointima and tunica media of the blood vessels was determined by image analysis software. For quantification of DNA synthesis, bromodeoxyuridine (BrdU) was injected into the mice 7 days after cuff placement and BrdU index calculated from incorporation into the nuclei of the cells was calculated.
as §1

[4] = low doses: 0.1 mg/kg/day azelnidipine, 0.5 mg/kg/day olmesartan, alone or at the same time

## CCCc1nc(C(C)(C)O)c(C(=O)OCc2oc(=O)oc2C)n1Cc1ccc(-c2ccccc2-c2nnn[nH]2)cc1 [Olmesartan medoxomil, (5-methyl-2-oxo-1,3-dioxolen-4-yl)methyl 4-(1-hydroxy-1-methylethyl)-2-propyl-1-[[2′-(1H-tetrazol-5-yl)biphenyl-4-yl]methyl]imidazol-5-carboxylate]
[1]
  Systolic blood pressures: 121 ± 4 mmHg
  hypotensive effects: did not elicit any significant effects
[2]
  DNA synthesis of cultured rat vascular smooth muscle cells: insufficient to elicit any effects alone
[3]
  effects on blood pressure: without any effects on blood pressure
[3]; [4]
  increase in DNA synthesis of vascular smooth muscle cells (BrdU index): did not elicit any significant effects
  potentiation of neointima formation in the blood vessels: did not elicit any significant effects

## CC1=C(C(=O)OC(C)C)C(c2cccc([N+](=O)[O-])c2)C(C(=O)OC2CN(C(c3ccccc3)c3ccccc3)C2)=C(N)N1 (racemic) [Azelnidipine, (±)-2-amino-1,4-dihydro-6-methyl-4-(3-nitrophenyl)-3,5-pyridine-dicarboxylate-3-(1-diphenylmethylazetidin-3-yl)ester 5-isopropylester]
[1]
  Systolic blood pressures: 127 ± 4 mmHg
  hypotensive effects: did not elicit any significant effects
[2]; concentration dependence, [3H]thymidine incorporation
  facilitation of DNA synthesis following stimulation by angiotensin II: suppressed by administration of azelnidipine in a concentration-dependent manner
[2]
  DNA synthesis of cultured rat vascular smooth muscle cells: insufficient to elicit any effects alone
[3]
  effects on blood pressure: without any effects on blood pressure
[3]; dose range: azelnidipine 0.1 to 1.0 mg/kg/day oral, olmesartan 0.5 to 3.0 mg/kg/day intraperitoneal osmotic minipump, 7 days after cuff placement
  increase in DNA synthesis of vascular smooth muscle cells (BrdU index): inhibited by azelnidipine in a dose-dependent manner
[3]; dose range: azelnidipine 0.1 to 1.0 mg/kg/day oral, olmesartan 0.5 to 3.0 mg/kg/day intraperitoneal osmotic minipump, 14 days after cuff placement
  potentiation of neointima formation in the blood vessels: inhibited by azelnidipine in a dose-dependent manner
[3]; [4]
  increase in DNA synthesis of vascular smooth muscle cells (BrdU index): did not elicit any significant effects
  potentiation of neointima formation in the blood vessels: did not elicit any significant effects
